For experiment [1], the system named is senescent myoblasts (passage 11). The experiment can be described thus: Morphological change by microscopy. The format is cell-based, human. Particulars: CP-466722 0.1 μM, 4 weeks. On the procedure:
A human myoblast cell line (Human Skeletal Muscle Myoblasts, Lonza CC-2580 LOT:0000387550) was inoculated into a plate (Greiner Bio One, 658950), which was coated with Collagen Type I, by using an SkBM™-2 Basal Medium (Lonza CC-3246) containing SkGM™-2 SingleQuots™ Kit (Lonza CC-3244), and then, cultured in a 5% CO2 incubator at a temperature of 37° C. When the cells were grown to about 85% confluency in the plate, the cells were subjected to subculture. The early subculture was carried out at a split ratio of 1:4, and the late subculture was carried out at a split ratio of 1:2. When the cell doubling time was 14 days, the cells were considered to be senescent […] (passages 10 to 12).
The senescent cells were inoculated into each well of a Collagen Type I-coated 6-well plate (Greiner Bio One, 657950) at a concentration of 2,000 cells/well, and then, the senescent myoblasts ([…]) in a CO2 incubator at a temperature of 37° C. for 4 weeks. The medium was replaced by a fresh medium containing KU-60019 (0.5 μM), once every 4 days. In addition, as a negative control group, the cells were cultured under the same conditions as described above, except that a medium used herein contained DMSO (0.05 (v/v) %).
In FIG. 16, the myoblasts were cultured in the presence of the ATM-kinase inhibitor KU-60019 (0.5 μM), and then, the cell shapes were photographed using a microscope. […]

The test system is the same in experiment [2]. The experiment can be described thus: ROS measurement (MitoSOX Red). The experiment is classed as cell-based, human. The following applies: CP-466722 0.1 μM. As for the experimental part:
(§1) ROS was measured according to the protocol of the manufacturer using a 0.2 μM MitoSOX™ Red reagent (Invitrogen, M36008). In detail, 2 μL of the reagent that was stored in a 1,000-fold concentration was added to a 2 ml medium sufficiently enough to cover the cultured cells that were attached to a coverslip. While being protected from light, the cells were further incubated at a temperature of 37° C. for 30 minutes. The cultured cells were irradiated with a wavelength of 520 nm by using a FACSCaliber (Beckton Dickinson), and then, measured with radiation emitted from a wavelength of 580 nm. The results were analyzed using Cell Quest 3.2 software (Beckton Dickinson).
as §1, with “by using an FACSCaliber (Beckton” for “by using a FACSCaliber (Beckton”

The structures appear in SMILES notation.

Consider `COc1cc2ncnc(-n3nc(-c4ccccn4)nc3N)c2cc1OC` [CP-466722, 2-(6,7-dimethoxyquinazolin-4-yl)-5-(pyridin-2-yl)-2H-1,2,4-triazol-3-amine], for which, in experiment [1], the “cell number and morphology vs DMSO control” value is “exist in a great number in the presence of CP-466722 and show a spindle form”. Moreover, in experiment [2], the “amount of ROS (superoxide) vs control” value is “significantly decreased”.

The values are drawn from US9770451B2, “Composition including ATM inhibitor for reducing cellular senescence and use of the composition” (Samsung Electronics Co., Ltd., priority 2014, dated 2017).
